The structures appear in SMILES notation.

The subject of series [1] is LPS/IL-1β-induced IL-6 secretion in human peripheral blood mononuclear cells (PBMCs). Description: Inhibition of LPS/IL-1β-induced IL-6 secretion in human PBMCs (IL-6 ELISA). Particulars: PBMC, LPS 10 ng/mL + IL-1β 20 ng/mL, 24 h pre-incubation, 20 h stimulation. Type of series: cell-based. The gist of the method:
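PBMCs preincubated 24 h at 37 °C with compounds (5-fold dilutions from 1 μM) in RPMI/10% FBS, then stimulated 20 h with LPS 10 ng/mL plus IL-1β 20 ng/mL (final). IL-6 in 200-fold diluted supernatant measured by ELISA at OD450 against a standard curve; IC50 from dose-response fitting.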
A general note: In an ELISA, binding on a coated surface is turned into a signal by an enzyme label.

Series [2] deals with T1, IRAK4 (Homo sapiens, UniProt Q9NWZ3).
T1 construct: Effect of the Compounds on IRAK4 Protein Degradation in THP1 Cells; endogenous in cells; host or cells: THP-1 cells
T1 sequence (Q9NWZ3 1-460): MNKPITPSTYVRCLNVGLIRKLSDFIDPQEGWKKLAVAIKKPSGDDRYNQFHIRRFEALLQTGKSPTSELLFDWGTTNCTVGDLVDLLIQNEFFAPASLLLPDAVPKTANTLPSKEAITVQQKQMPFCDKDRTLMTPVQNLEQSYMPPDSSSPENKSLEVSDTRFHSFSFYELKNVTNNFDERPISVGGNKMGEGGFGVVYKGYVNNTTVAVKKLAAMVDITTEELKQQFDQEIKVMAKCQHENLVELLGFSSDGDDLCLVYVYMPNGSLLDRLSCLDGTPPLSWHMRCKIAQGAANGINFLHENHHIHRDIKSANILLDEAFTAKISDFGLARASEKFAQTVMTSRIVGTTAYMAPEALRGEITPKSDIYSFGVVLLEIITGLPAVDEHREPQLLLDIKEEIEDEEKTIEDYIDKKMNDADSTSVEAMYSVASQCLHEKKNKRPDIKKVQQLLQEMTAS
Description: IRAK4 protein degradation in THP1 cells (Western blot). It counts as cell-based. The note with it: THP-1 cells, 24 h. The gist of the method:
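THP-1 cells (2×10^5/well) were treated with 5-fold serial compound dilutions for 24 h at 37 °C, then lysed with proteasome/phosphatase inhibitors. IRAK4 was detected by Western blot with chemiluminescence and semi-quantified by densitometry. DC50 came from the concentration–response.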
In general terms: In western blotting, separated proteins are transferred to a membrane and probed.

Series [3] in a line: Metabolic stability in human liver microsome. Type of series: in vitro ADME. The note with it: NADPH, 60 min; for half-life at 1 µM: liver microsomes, read-out: Human liver microsome (t1/2, min). As for the experimental part:
Clean incubation plates T60 and NCF60 were preheated at 37° C. for 10 min. Liver microsomes were diluted to a concentration of 0.56 mg/mL with 100 mM phosphate buffer, and 445 μL of the microsome working solution (0.56 mg/mL) was transferred to the preheated incubation plates T60 and NCF60, followed by incubation of the plates T60 and NCF60 with continuous shaking at 37° C. for 10 min. After incubation, 54 μL of liver microsomes were transferred to a blank plate, 6 μL of NAPDH cofactor was added to the blank plate, and then 180 μL of quenching solution was added to the blank plate. 5 μL of the compound working solution (100 μM) was added to the microsome-containing incubation plates T60 and NCF60, and mixed thoroughly 3 times. For plate NCF60, 50 μL of buffer was added and the system was mixed thoroughly 3 times before timing was started, and the plate was incubated with shaking at 37° C. for 60 min. For the quenching plate, 180 μL of quenching solution and 6 μL of NADPH cofactor were added, and the plate was ensured to be cooled to prevent evaporation. For the T60 plate, the mixture was thoroughly mixed 3 times, and 54 μL of the mixture was immediately transferred to the quenching plate at the time point of 0 min. Then 44 μL of the NAPDH cofactor was added to the incubation plate (T60). Timing was started, and the plate was incubated with shaking at 37° C. for 60 min. At the time points of 5, 15, 30, 45, and 60 min, 180 μL of the quenching solution was added to the quenching plate respectively, mixed once, and 60 μL of sample was continuously transferred from the plate T60 to the quenching plate at each time point. For plate NCF60, after mixing once, 60 μL of the sample was transferred from incubation plate NCF60 to the quenching plate containing quenching solution at the 60-min time point. All sampling plates were shaken for 10 min, then centrifuged at 4000 rpm at 4° C. for 20 min. 80 μL of the supernatant was transferred to 240 μL of HPLC water, and mixed using a plate shaker for 10 min. Each bioanalytical plate was sealed and shaken for 10 min before LC-MS/MS analysis.
(Liver microsomes are vesicles of endoplasmic reticulum, rich in cytochrome P450 enzymes.)

For series [4], the system named is R848-induced IL-6 secretion in human peripheral blood mononuclear cells (PBMCs). Description: Inhibition of R848-induced IL-6 secretion in human PBMCs (IL-6 ELISA). Type of series: cell-based. The note with it: PBMC, R848 2.5 μg/mL, 20 h pre-incubation, 24 h stimulation. As for the experimental part:
This experiment was carried out in RPMI 1640 medium containing 10% FBS and 1% penicillin/streptomycin, with each of the compounds at an initial test concentration of 1 μM. The compound was dissolved in DMSO to prepare a stock solution, which was serially diluted into a series of working solutions with a 4-fold concentration gradient using the culture medium and then added to a 96-well plate at 10 μL per well. PBMCs (Batch No.: P122101102C; Milecell Biotechnology Inc.) were counted and diluted to a cell concentration of 1.25×10^6 cells/mL, and then added to the aforementioned compound-containing 96-well plate at 160 μL per well. The system was mixed well and incubated in a 5% CO2 incubator at 37° C. for 20 h. Then 10 μL of R848 (final concentration: 2.5 μg/mL) was added, and the culture was continued for 24 h in a 5% CO2 incubator at 37° C. After incubation, the 96-well plate was centrifuged at 2000 rpm for 4 min. The supernatant was collected and diluted 120-fold, then detected using an IL-6 ELISA kit. The OD450 values were read, and converted to IL-6 concentrations based on a standard curve.

The subject of series [5] is DSS-induced enteritis model. Description: DSS-induced enteritis (colitis) model. Type of series: in vivo, mice. The note with it: po, QD, Model 10.33 ± 1.11, Mean ± SD, n = 7. The source says:
The experimental mice were pre-acclimatized in the animal facility for one week; at the beginning of the experiment, the mice were given medication intragastrically daily according to their body weight. After the completion of intragastric administration in each group, mice had direct access to water bottles for free drinking. The blank group received normal water, while the other groups received pre-prepared DSS water. Each afternoon, the mice's abdomens were massaged to stimulate defecation, and one fecal pellet was collected onto a white porcelain plate. Fecal consistency was judged and recorded according to Table 30. The fecal occult blood qualitative test kit (Yuanye Biotechnology, #R24187-300T) was used to test for occult blood in feces and the results were interpreted according to Table 31.

Series [6] has as its system IMQ psoriasis model. Description: IMQ (imiquimod)-induced psoriasis model. Type of series: in vivo, BALB/c mice. Particulars: 160 mg/animal, Mean ± SD, n = 7. As for the experimental part: Male BALB/c mice, aged 6-8 weeks, were randomly divided into 9 groups after 1 week of acclimatization: blank control group, imiquimod model group (IMQ group, corresponding to the model groups in FIGS. 1 and 2), clobetasol propionate cream group (CLO group), TYKI (BMS-986165) group, IRAK4 protein degrader KT-474 (from patent WO2020113233) group (100 mg/kg), and the compound of the present disclosure (at an appropriate dose), with 6-7 mice in each group. One day before modeling, the hair on the backs of the mice was removed with depilatory cream, with a depilated area of 2×2 cm^2. On the day of modeling, IMQ cream was used for modeling, and the corresponding drugs were administered intragastrically for treatment. The compound of the present disclosure (at an appropriate dose) was administered intragastrically once daily, and IMQ cream was applied to the hairless area on the back and left ear of mice 2 h after the first administration. […] The blank group and the IMQ group were administered with vehicle intragastrically twice daily (in the morning and evening), with an 8-h interval between the two intragastric administrations. At 2 h after the first intragastric administration, vaseline and IMQ cream were applied topically to the depilated back and ears of the mice, respectively. The dosage of IMQ cream administered to the depilated area on the back and the left ear was 80 mg and 10 mg, respectively, and the mice in each group were administered the cream for 5 consecutive days.
Reference was made to the Psoriasis Area and Severity Index (PASI) scoring criteria. The psoriasis, erythema, and thickness of skin lesions on the back were scored from 0 to 4 every morning from day 1 of modeling, with the scoring criteria as shown in Table 28. The 3 were added up to obtain a total score, i.e., a total PASI score. The ear thickness of the left ear of the mouse was measured using a digital vernier caliper three times every morning from day 1 of modeling, to obtain a mean value.

One may read the IC50 as the concentration needed to halve the response being measured. For orientation: DC50 means the midpoint of the concentration-degradation curve. Turning to `CN(C)c1cc2nn(C3CCN(C[C@H]4CC[C@H](n5cc6cc(C7CCC(=O)NC7=O)c(F)cc6n5)CC4)CC3)cc2cc1NC(=O)c1cnn2cccnc12` (stereo partly drawn) [TM-8], in series [1], the IC50 came to 0.84 nM. It took 3.58 nM to reach half-maximal degradation in series [2] (DC50). For the same compound, the “Human liver microsome (t1/2, min)” value in series [3] was 145 min.
`CN(C)c1cc2nn([C@H]3CC[C@H](CN4CCC(n5cc6c(F)cc(C7CCC(=O)NC7=O)cc6n5)CC4)CC3)cc2cc1NC(=O)c1cnn2cccnc12` (stereo partly drawn) [TM-233]: the IC50 in series [1] was determined as 0.83 nM; in series [4], 3.34 nM. The half-life at 1 µM in series [3] turned out to be 138 min.
As to `CN(C)c1cc2nn([C@H]3CC[C@H](CN4CC[C@H](n5cc6cc(C7CCC(=O)NC7=O)c(F)cc6n5)[C@H](F)C4)CC3)cc2cc1NC(=O)c1cnn2cccnc12` (stereo partly drawn) [TM-132], the IC50 in series [1] was 3.52 nM; in series [4], 7.83 nM. For the same compound, the DC50 in series [2] came to 0.31 nM. In addition, the half-life at 1 µM in series [3] stood at 93.1 min.
Turning to `CN(C)c1cc2nn([C@H]3CC[C@H](CN4CCC(n5cc6cc(F)c(C7CCC(=O)NC7=O)cc6n5)CC4)CC3)cc2cc1NC(=O)c1cnn2cccnc12` (stereo partly drawn) [TM-6], in series [1], the IC50 came to 1.15 nM. In series [2], this compound gave a DC50 of 0.7 nM. The half-life at 1 µM in series [3] is 124 min.
Take `CN(C)c1cc2nn([C@H]3CC[C@H](CN4CC[C@@H](n5cc6cc(C7CCC(=O)NC7=O)c(F)cc6n5)[C@H](F)C4)CC3)cc2cc1NC(=O)c1cnn2cccnc12` (stereo partly drawn) [TM-133]: the IC50 in series [1] is 3.55 nM. Moreover, the DC50 in series [2] is 1.6 nM. Moreover, in series [3], the half-life at 1 µM worked out at 107 min.
On the same counts, the results for `CN(C)c1cc2nn([C@H]3CC[C@H](CN4CC[C@H](n5cc6cc(F)c(C7CCC(=O)NC7=O)cc6n5)[C@H](F)C4)CC3)cc2cc1NC(=O)c1cnn2cccnc12` (stereo partly drawn) [TM-136] are 6.63 nM, 1.71 nM and 101 min.
Regarding `CN(C)c1cc2nn([C@H]3CC[C@H](CN4C[C@@H](F)[C@H](n5cc6c(F)cc(N7CCC(=O)NC7=O)cc6n5)C4)CC3)cc2cc1NC(=O)c1cnn2cccnc12` [TM-221], the IC50 in series [1] turned out to be 1.88 nM; in series [4], 7.1 nM. Besides, the “DAI Score d 8” value in series [5] (3 mpk) was 4.43 ± 1.68; in series [5] (10 mpk), 3.00 ± 1.07; in series [5] (30 mpk), 2.57 ± 2.50. Besides, half-maximal degradation in series [2] (DC50) was put at 8.45 nM.
For `CCC(=O)O[C@]1(C(=O)CCl)[C@@H](C)C[C@H]2[C@@H]3CCC4=CC(=O)C=C[C@]4(C)[C@@]3(F)[C@@H](O)C[C@@]21C` [CLO, Clobetasol propionate, reference compound], in series [6] (Model 8.85 ± 1.66), the “PASI Score d 6” value stood at 1.17 ± 0.85. In addition, the “ΔSkin Thickness Change (μm) d 6” value in series [6] (Model 80.95 ± 6.16) is given as −18.10 ± 6.33 μm.
For `CN(C)c1cc2nn([C@H]3CC[C@H](CN4CCC(n5cc6cc(N7CCC(=O)NC7=O)ccc6n5)CC4)CC3)cc2cc1NC(=O)c1cnn2cccnc12` [TM-3], the IC50 worked out at 0.39 nM in series [1] and 3.53 nM in series [4]. Moreover, the DC50 in series [2] was found to be 2.76 nM. In series [3], the “Human liver microsome (t1/2, min)” value was determined as 145 min.
As to `CN(C)c1cc2nn([C@H]3CC[C@H](CN4CC[C@H](n5cc6cc(F)c(C7CCC(=O)NC7=O)cc6n5)[C@@H](F)C4)CC3)cc2cc1NC(=O)c1cnn2cccnc12` (stereo partly drawn) [TM-138], the IC50 in series [1] worked out at 6.96 nM. For the same compound, the half-life at 1 µM in series [3] came to 91 min.
Consider `CN(C)c1cc2nn([C@H]3CC[C@H](CN4CC[C@@H](n5cc6cc(F)c(C7CCC(=O)NC7=O)cc6n5)[C@H](F)C4)CC3)cc2cc1NC(=O)c1cnn2cccnc12` (stereo partly drawn) [TM-137], for which the IC50 in series [1] amounted to 2.4 nM. Besides, in series [2], it took 9.41 nM to reach half-maximal degradation (DC50). Moreover, in series [3], the half-life at 1 µM came to 92.3 min.
With `CN(C)c1cc2nn([C@H]3CC[C@H](CN4CC[C@@H](n5cc6ccc(C7CCC(=O)NC7=O)cc6n5)[C@H](F)C4)CC3)cc2cc1NC(=O)c1cnn2cccnc12` (stereo partly drawn) [TM-152], in series [1], the IC50 was found to be 9.43 nM. This compound registered a DC50 in series [2] of 1.09 nM. Besides, the half-life at 1 µM in series [3] is 104 min.
As to `CN(C)c1cc2nn([C@H]3CC[C@H](CN4CC[C@H](n5cc6cc(C7CCC(=O)NC7=O)c(F)cc6n5)[C@@H](F)C4)CC3)cc2cc1NC(=O)c1cnn2cccnc12` (stereo partly drawn) [TM-134], the IC50 in series [1] was 2.59 nM. Moreover, in series [2], the DC50 is 3 nM. Also, the half-life at 1 µM in series [3] is 114 min.
